In publication PMC8286840, “Identifying SARS-CoV-2 antiviral compounds by screening for small molecule inhibitors of Nsp3 papain-like protease” (Biochemical Journal, 2021):
Counter-ions that a name gives are not always drawn. Like-named read-outs stand apart in the source and are kept apart here.

Assays:
[1] = target: T1, SARS-CoV-2 PLpro (nsp3 1564–1878) (Severe acute respiratory syndrome coronavirus 2, UniProt P0DTD1); assay: biochemical; design: FRET-quenched peptide (Pro3) cleavage by PLpro, 10 min pre-incubation, slope over 20 min, normalised to no-compound control; conditions: high concentration screen
[2] = target: T1, SARS-CoV-2 PLpro (nsp3 1564–1878); assay: biochemical; design: FRET-quenched peptide (Pro3) cleavage by PLpro, 10 min pre-incubation, slope over 20 min, normalised to no-compound control; conditions: low concentration screen
[3] = Well no.=7982, read-out: % of control remaining
[4] = Well no.=273, read-out: % of control remaining
[5] = Well no.=8068, read-out: % of control remaining
[6] = Well no.=5026, read-out: % of control remaining
[7] = Well no.=6621, read-out: % of control remaining
[8] = Well no.=125, read-out: % of control remaining
[9] = Well no.=77, read-out: % of control remaining
[10] = Well no.=7091, read-out: % of control remaining
[11] = Well no.=5651, read-out: % of control remaining
[12] = read-out: % of control remaining, Well no.=271
[13] = read-out: % of control remaining, Well no.=2171
[14] = read-out: % of control remaining, Well no.=6566
[15] = Well no.=6849, read-out: % of control remaining
[16] = Well no.=175, read-out: % of control remaining
[17] = Well no.=1735, read-out: % of control remaining
[18] = Well no.=6177, read-out: % of control remaining
[19] = Well no.=7565, read-out: % of control remaining
[20] = Well no.=322, read-out: % of control remaining
[21] = Well no.=3835, read-out: % of control remaining
[22] = Well no.=3089, read-out: % of control remaining
[23] = Well no.=6646, read-out: % of control remaining
[24] = Well no.=1814, read-out: % of control remaining
[25] = Well no.=1660, read-out: % of control remaining
[26] = Well no.=5197, read-out: % of control remaining
[27] = Well no.=1860, read-out: % of control remaining
[28] = Well no.=5916, read-out: % of control remaining
[29] = Well no.=2173, read-out: % of control remaining
[30] = Well no.=6188, read-out: % of control remaining
[31] = Well no.=7013, read-out: % of control remaining
[32] = Well no.=3091, read-out: % of control remaining
[33] = Well no.=5237, read-out: % of control remaining
[34] = Well no.=3519, read-out: % of control remaining
[35] = Well no.=5359, read-out: % of control remaining
[36] = Well no.=6390, read-out: % of control remaining
[37] = Well no.=7434, read-out: % of control remaining
[38] = Well no.=6542, read-out: % of control remaining

**Q.** Which remaining activity at 3.75 µM [1, 3] does the source give for O=S(=O)(O)c1cc(O)c2c(N=Nc3c(S(=O)(=O)O)cc4cc(S(=O)(=O)O)cc(O)c4c3O)cc(S(=O)(=O)O)cc2c1 [Beryllon II] here?
**A.** 93.7%

**Q.** What about the remaining activity at 1.25 µM [2, 3] of the same compound?
**A.** 92.8%

**Q.** Which results are given for CC(C)C[C@H](NC(=O)[C@@H](O)[C@H](N)Cc1ccccc1)C(=O)O [Bestatin hydrochloride]?
**A.** remaining activity at 3.75 µM [1, 4]: 97.1%; remaining activity at 1.25 µM [2, 4]: 96.2%

**Q.** Which remaining activity at 3.75 µM [1, 5] does the source give for CC(C)C[C@H](NC(=O)[C@@H](O)[C@H](N)Cc1ccccc1)C(=O)O [Bestatin] here?
**A.** 97.8%

**Q.** What about the remaining activity at 1.25 µM [2, 5] of the same compound?
**A.** 98.5%

**Q.** With CNCCc1ccccn1 [Betahistine 2HCl] as the compound, how does the remaining activity at 3.75 µM [1, 6] read?
**A.** 98.9%

**Q.** What about the remaining activity at 1.25 µM [2, 6] of the same compound?
**A.** 97.2%

**Q.** CNCCc1ccccn1 [Betahistine (dihydrochloride)] was tested. Which remaining activity at 3.75 µM [1, 7] did it give?
**A.** 92.4%

**Q.** And the remaining activity at 1.25 µM [2, 7]?
**A.** 98.5%

**Q.** For C[N+](C)(C)CC=O [Betaine aldehyde chloride], which remaining activity at 3.75 µM [1, 8] is on record?
**A.** 102%

**Q.** And the remaining activity at 1.25 µM [2, 8]?
**A.** 96.6%

**Q.** C[N+](C)(C)CC(=O)O [Betaine hydrochloride] was tested. Which remaining activity at 3.75 µM [1, 9] did it give?
**A.** 103%

**Q.** What about the remaining activity at 1.25 µM [2, 9] of the same compound?
**A.** 101%

**Q.** How did the remaining activity at 3.75 µM [1, 10] turn out when CCC(=O)OCC(=O)[C@@]1(OC(=O)CC)[C@@H](C)C[C@H]2[C@@H]3CCC4=CC(=O)C=C[C@]4(C)[C@@]3(F)[C@@H](O)C[C@@]21C [Betamethasone dipropionate] was run?
**A.** 98.8%

**Q.** What about the remaining activity at 1.25 µM [2, 10] of the same compound?
**A.** 93.4%

**Q.** CCCCC(=O)O[C@]1(C(=O)CO)[C@@H](C)C[C@H]2[C@@H]3CCC4=CC(=O)C=C[C@]4(C)[C@@]3(F)[C@@H](O)C[C@@]21C [Betamethasone valerate] was tested. Which remaining activity at 3.75 µM [1, 11] did it give?
**A.** 97.2%

**Q.** What about the remaining activity at 1.25 µM [2, 11] of the same compound?
**A.** 94.9%

**Q.** Which remaining activity at 3.75 µM [1, 12] does the source give for C[C@H]1C[C@H]2[C@@H]3CCC4=CC(=O)C=C[C@]4(C)[C@@]3(F)[C@@H](O)C[C@]2(C)[C@@]1(O)C(=O)CO [Betamethasone] here?
**A.** 95.6%

**Q.** And the remaining activity at 3.75 µM [1, 13]?
**A.** 93.7%

**Q.** What about the remaining activity at 3.75 µM [1, 14] of the same compound?
**A.** 95.4%

**Q.** And the remaining activity at 1.25 µM [2, 12]?
**A.** 97.7%

**Q.** And the remaining activity at 1.25 µM [2, 13]?
**A.** 93.5%

**Q.** What about the remaining activity at 1.25 µM [2, 14] of the same compound?
**A.** 94.8%

**Q.** What does the source list for CC(C)NCC(O)COc1ccc(CCOCC2CC2)cc1 (stereo not drawn) [Betaxolol (hydrochloride)]?
**A.** remaining activity at 3.75 µM [1, 15]: 102%; remaining activity at 1.25 µM [2, 15]: 107%

**Q.** CC(C)NCC(O)COc1ccc(CCOCC2CC2)cc1 (stereo not drawn) [Betaxolol hydrochloride] was tested. Which remaining activity at 3.75 µM [1, 16] did it give?
**A.** 101%

**Q.** And the remaining activity at 1.25 µM [2, 16]?
**A.** 102%

**Q.** For CC(C)NCC(O)COc1ccc(CCOCC2CC2)cc1 (stereo not drawn) [Betaxolol.HCl], which remaining activity at 3.75 µM [1, 17] is on record?
**A.** 99.8%

**Q.** What about the remaining activity at 1.25 µM [2, 17] of the same compound?
**A.** 99.1%

**Q.** With CC(C)NCC(O)COc1ccc(CCOCC2CC2)cc1 (stereo not drawn) [Betaxolol] as the compound, how does the remaining activity at 3.75 µM [1, 18] read?
**A.** 97.1%

**Q.** What about the remaining activity at 1.25 µM [2, 18] of the same compound?
**A.** 104%

**Q.** With CC(C[N+](C)(C)C)OC(N)=O (stereo not drawn) [Bethanechol (chloride)] as the compound, how does the remaining activity at 3.75 µM [1, 19] read?
**A.** 92.1%

**Q.** And the remaining activity at 1.25 µM [2, 19]?
**A.** 99.8%

**Q.** What does the source list for CC(C[N+](C)(C)C)OC(N)=O (stereo not drawn) [Bethanechol chloride]?
**A.** remaining activity at 3.75 µM [1, 20]: 102%; remaining activity at 1.25 µM [2, 20]: 102%

**Q.** How did the remaining activity at 3.75 µM [1, 21] turn out when C=C(C)[C@@H]1CC[C@]2(CO)CC[C@]3(C)[C@H](CC[C@@H]4[C@@]5(C)CC[C@H](O)C(C)(C)[C@@H]5CC[C@]43C)[C@@H]12 [Betulin] was run?
**A.** 101%

**Q.** What about the remaining activity at 1.25 µM [2, 21] of the same compound?
**A.** 103%

**Q.** With C=C(C)[C@@H]1CC[C@]2(C(=O)O)CC[C@]3(C)[C@H](CC[C@@H]4[C@@]5(C)CC[C@H](O)C(C)(C)[C@@H]5CC[C@]43C)[C@@H]12 [Betulinic acid] as the compound, how does the remaining activity at 3.75 µM [1, 22] read?
**A.** 101%

**Q.** What about the remaining activity at 3.75 µM [1, 23] of the same compound?
**A.** 100%

**Q.** And the remaining activity at 1.25 µM [2, 22]?
**A.** 102%

**Q.** And the remaining activity at 1.25 µM [2, 23]?
**A.** 105%

**Q.** With C=C(c1ccc(C(=O)O)cc1)c1cc2c(cc1C)C(C)(C)CCC2(C)C [Bexarotene] as the compound, how does the remaining activity at 3.75 µM [1, 24] read?
**A.** 94.9%

**Q.** What about the remaining activity at 1.25 µM [2, 24] of the same compound?
**A.** 93.1%

**Q.** With CC(C)(Oc1ccc(CCNC(=O)c2ccc(Cl)cc2)cc1)C(=O)O [Bezafibrate] as the compound, how does the remaining activity at 3.75 µM [1, 25] read?
**A.** 97.5%

**Q.** And the remaining activity at 1.25 µM [2, 25]?
**A.** 98.3%

**Q.** For C[C@@H](O)[C@H]1C(=O)N2C(C(=O)[O-])=C(SC3Cn4cnc[n+]4C3)[C@H](C)[C@H]12 (stereo partly drawn) [Biapenem], which remaining activity at 3.75 µM [1, 26] is on record?
**A.** 100%

**Q.** What about the remaining activity at 1.25 µM [2, 26] of the same compound?
**A.** 99.1%

**Q.** How did the remaining activity at 3.75 µM [1, 27] turn out when CC(O)(CS(=O)(=O)c1ccc(F)cc1)C(=O)Nc1ccc(C#N)c(C(F)(F)F)c1 (stereo not drawn) [Bicalutamide] was run?
**A.** 99.2%

**Q.** What about the remaining activity at 1.25 µM [2, 27] of the same compound?
**A.** 97.5%

**Q.** What does the source list for COC(=O)c1cc(OC)c2c(c1-c1c(CO)cc(OC)c3c1OCO3)OCO2 [Bicyclol]?
**A.** remaining activity at 3.75 µM [1, 28]: 100%; remaining activity at 1.25 µM [2, 28]: 107%

**Q.** How did the remaining activity at 3.75 µM [1, 29] turn out when c1ccc(-c2ccc(C(c3ccccc3)n3ccnc3)cc2)cc1 (stereo not drawn) [Bifonazole] was run?
**A.** 101%

**Q.** What about the remaining activity at 1.25 µM [2, 29] of the same compound?
**A.** 99.6%

**Q.** For CCOCCn1c(C2CCN(CCc3ccc(C(C)(C)C(=O)O)cc3)CC2)nc2ccccc21 [Bilastine], which remaining activity at 3.75 µM [1, 30] is on record?
**A.** 100%

**Q.** What about the remaining activity at 1.25 µM [2, 30] of the same compound?
**A.** 101%

**Q.** Which remaining activity at 3.75 µM [1, 31] does the source give for C=CC1=C(C)/C(=C/c2[nH]c(Cc3[nH]c(/C=C4\NC(=O)C(C)=C4C=C)c(C)c3CCC(=O)O)c(CCC(=O)O)c2C)NC1=O [Bilirubin] here?
**A.** 104%

**Q.** What about the remaining activity at 1.25 µM [2, 31] of the same compound?
**A.** 103%

**Q.** Which results are given for CC(C)(C)[C@]1(O)C[C@@H]2OC(=O)C[C@@]23C(=O)O[C@@H]2OC(=O)[C@H](O)[C@]213 [Bilobalide]?
**A.** remaining activity at 3.75 µM [1, 32]: 105%; remaining activity at 1.25 µM [2, 32]: 105%

**Q.** What does the source list for CCNC(=O)CCC/C=C\C[C@@H]1[C@@H](/C=C/[C@@H](O)CCc2ccccc2)[C@H](O)C[C@@H]1O [Bimatoprost]?
**A.** remaining activity at 3.75 µM [1, 33]: 101%; remaining activity at 1.25 µM [2, 33]: 100%

**Q.** With COc1ccc(-c2coc3cc(O)cc(O)c3c2=O)cc1 [Biochanin A] as the compound, how does the remaining activity at 3.75 µM [1, 34] read?
**A.** 101%

**Q.** And the remaining activity at 1.25 µM [2, 34]?
**A.** 103%

**Q.** What does the source list for O=C(O)CCCC[C@@H]1SC[C@@H]2NC(=O)N[C@@H]21 [Biotin (Vitamin B7)]?
**A.** remaining activity at 3.75 µM [1, 35]: 95.3%; remaining activity at 1.25 µM [2, 35]: 98.1%

**Q.** What does the source list for N=C1S/C(=C\c2ccc(-c3ccc4c(c3)C(=O)NC4=O)o2)C(=O)N1c1ccc(Br)cc1 [Bioymifi]?
**A.** remaining activity at 3.75 µM [1, 36]: 98%; remaining activity at 1.25 µM [2, 36]: 96.5%

**Q.** With OC(CCN1CCCCC1)(c1ccccc1)C1C[C@@H]2C=C[C@H]1C2 (stereo partly drawn) [Biperiden (Hydrochloride)] as the compound, how does the remaining activity at 3.75 µM [1, 37] read?
**A.** 100%

**Q.** And the remaining activity at 1.25 µM [2, 37]?
**A.** 97.8%

**Q.** Which results are given for CC[C@H](NC(=O)[C@H](C)NC)C(=O)N1C[C@@H](O)C[C@H]1Cc1c(-c2[nH]c3cc(F)ccc3c2C[C@@H]2C[C@H](O)CN2C(=O)[C@H](CC)NC(=O)[C@H](C)NC)[nH]c2cc(F)ccc12 [Birinapant]?
**A.** remaining activity at 3.75 µM [1, 38]: 75.1%; remaining activity at 1.25 µM [2, 38]: 95%
